Measured values from patent US10501421B1, “Substituted benzimidazoles as modulators of Ras signaling” (VANDERBILT UNIVERSITY, priority 2017, dated 2019).
Counter-ions that a name gives are not always drawn.

Legend:
Son of Sevenless (SOS) = biological target: T1, Son of Sevenless (SOS) (Homo sapiens, UniProt Q07889); experiment: Binding to SOS, fluorescence polarization anisotropy (FPA) probe displacement; settings: displacement of FITC-conjugated probe (Example 285), affinity calculated from IC50
T1 sequence (Q07889 564-1049 limits assumed): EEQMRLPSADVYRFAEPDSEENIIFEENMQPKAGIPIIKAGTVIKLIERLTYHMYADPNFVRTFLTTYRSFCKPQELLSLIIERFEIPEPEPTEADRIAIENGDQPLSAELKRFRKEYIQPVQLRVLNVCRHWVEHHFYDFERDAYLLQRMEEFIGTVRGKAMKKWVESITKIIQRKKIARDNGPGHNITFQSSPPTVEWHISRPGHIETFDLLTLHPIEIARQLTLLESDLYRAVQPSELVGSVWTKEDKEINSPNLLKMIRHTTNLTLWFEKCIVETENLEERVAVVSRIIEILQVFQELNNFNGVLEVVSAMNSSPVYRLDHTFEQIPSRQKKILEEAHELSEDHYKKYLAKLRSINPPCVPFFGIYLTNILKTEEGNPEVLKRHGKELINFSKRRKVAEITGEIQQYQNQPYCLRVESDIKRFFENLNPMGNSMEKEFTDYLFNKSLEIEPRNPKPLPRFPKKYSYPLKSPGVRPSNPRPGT
How it was run: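 Test compounds were titrated against SOS pre-bound to a fluorescein-labelled probe, with anisotropy plotted versus compound concentration. Binding affinities were derived from IC50 values obtained by four-parameter dose-response fitting.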

[1] = biological target: Ras GEF SOS (Son of Sevenless) (Homo sapiens, UniProt Q07889); experiment: SOS-mediated nucleotide exchange on Ras (BODIPY-GDP fluorescence); type: biochemical; settings: SOS-mediated exchange of BODIPY-GDP for GTP on Ras
How it was run: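 Exchange rates were taken from single-exponential fits of the fluorescence time course as BODIPY-GDP on Ras was replaced by GTP. Compound went in first, then GTP and SOS. Mean rates plotted against concentration gave EC50 by four-parameter dose-response fitting.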

Chain of Ras GEF SOS (Son of Sevenless) (P01112 1-166 partner limits assumed, one chain of several): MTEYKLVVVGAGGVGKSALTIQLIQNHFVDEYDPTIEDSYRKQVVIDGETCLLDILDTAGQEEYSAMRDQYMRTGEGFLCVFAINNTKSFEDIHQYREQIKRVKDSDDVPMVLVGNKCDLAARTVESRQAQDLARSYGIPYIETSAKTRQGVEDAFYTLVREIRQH

Ki (Son of Sevenless (SOS)) [nM] | EC50 [1] [nM] | Structure (SMILES)
500 to 1000 | 1000 to 5000 | Cc1cc(Cn2c(N3CCNCC3)nc3c(-c4c(C)cccc4C#Cc4ccccc4Cl)cc(Cl)cc32)cc(C)c1F [Example 184, 6-chloro-4-(2-((2-chlorophenyl)ethynyl)-6-methylphenyl)-1-(4-fluoro-3,5-dimethylbenzyl)-2-(piperazin-1-yl)-1H-benzo[d]imidazole trifluoroacetate]
> 5000 | 5000 to 30000 | Cc1ccccc1C#Cc1ccccc1-c1cc(Cl)cc2c1nc(N1CCNCC1)n2Cc1cc(C)c(F)c(C)c1 [Example 185, 6-chloro-1-(4-fluoro-3,5-dimethylbenzyl)-2-(piperazin-1-yl)-4-(2-(o-tolylethynyl)phenyl)-1H-benzo[d]imidazole trifluoroacetate]
500 to 1000 | 1000 to 5000 | Cc1cc(N2CCC(N)CC2)c2nc(N3CCNCC3)n(Cc3cc(C)c(F)c(C)c3)c2c1 [Example 188, 1-(1-(4-fluoro-3,5-dimethylbenzyl)-6-methyl-2-(piperazin-1-yl)-1H-benzo[d]imidazol-4-yl)piperidin-4-amine trifluoroacetate]
500 to 1000 | 1000 to 5000 | Cc1cc(N2CCC(CN)C2)c2nc(N3CCNCC3)n(Cc3cc(C)c(F)c(C)c3)c2c1 (centres unmarked) [Example 189, (1-(1-(4-fluoro-3,5-dimethylbenzyl)-6-methyl-2-(piperazin-1-yl)-1H-benzo[d]imidazol-4-yl)pyrrolidin-3-yl)methanamine trifluoroacetate]
500 to 1000 | < 1000 | Cc1cc(N2CCNCC2)c2nc(N3CCNCC3)n(Cc3cc(C)c(F)c(C)c3)c2c1 [Example 190, 1-(4-fluoro-3,5-dimethylbenzyl)-6-methyl-2,4-di(piperazin-1-yl)-1H-benzo[d]imidazole trifluoroacetate]
500 to 1000 | 1000 to 5000 | Cc1cc(N(C)CCN(C)C)c2nc(N3CCNCC3)n(Cc3cc(C)c(F)c(C)c3)c2c1 [Example 191, N^1-(1-(4-fluoro-3,5-dimethylbenzyl)-6-methyl-2-(piperazin-1-yl)-1H-benzo[d]imidazol-4-yl)-N^1,N^2,N^2-trimethylethane-1,2-diamine trifluoroacetate]
500 to 1000 | 1000 to 5000 | CNCCN(C)c1cc(C)cc2c1nc(N1CCNCC1)n2Cc1cc(C)c(F)c(C)c1 [Example 192, N^1-(1-(4-fluoro-3,5-dimethylbenzyl)-6-methyl-2-(piperazin-1-yl)-1H-benzo[d]imidazol-4-yl)-N^1,N^2-dimethylethane-1,2-diamine trifluoroacetate]
500 to 1000 | 1000 to 5000 | Cc1cc(NCCN2CCOCC2)c2nc(N3CCNCC3)n(Cc3cc(C)c(F)c(C)c3)c2c1 [Example 193, 1-(4-fluoro-3,5-dimethylbenzyl)-6-methyl-N-(2-morpholinoethyl)-2-(piperazin-1-yl)-1H-benzo[d]imidazol-4-amine trifluoroacetate]

Continued, molecule first:

Structure (SMILES) | Ki (Son of Sevenless (SOS)) [nM] | EC50 [1] [nM]
Cc1cc(Cn2c(NCCN)nc3c([C@@H](N)c4ccccc4)cc(Cl)cc32)cc(C)c1F [Example 160, (S)—N^1-(4-(amino(phenyl)methyl)-6-chloro-1-(4-fluoro-3,5-dimethylbenzyl)-1H-benzo[d]imidazol-2-yl)ethane-1,2-diamine trifluoroacetate] | < 500 | 1000 to 5000
C=C[C@@H](N)c1cc(C)cc2c1nc(N1CCNCC1)n2Cc1cc(C)c(F)c(C)c1 [Example 163, (R)-1-(1-(4-fluoro-3,5-dimethylbenzyl)-6-methyl-2-(piperazin-1-yl)-1H-benzo[d]imidazol-4-yl)prop-2-en-1-amine trifluoroacetate] | 500 to 1000 | 1000 to 5000
CCC[C@H](N)c1cccc2c1nc(N1CCNCC1)n2Cc1ccc(F)c(Cl)c1 [Example 165, (S)-1-(1-(3-chloro-4-fluorobenzyl)-2-(piperazin-1-yl)-1H-benzo[d]imidazol-4-yl)butan-1-amine trifluoroacetate] | 1000 to 5000 | 1000 to 5000
N[C@H](c1cc(Cl)cc2c1nc(N1CCNCC1)n2Cc1ccc(F)c(Cl)c1)C1CC1 [Example 167, (S)-(6-chloro-1-(3-chloro-4-fluorobenzyl)-2-(piperazin-1-yl)-1H-benzo[d]imidazol-4-yl)(cyclopropyl)methanamine trifluoroacetate] | 500 to 1000 | < 1000
COc1ccc(-n2nccc2-c2cc(Cl)cc3c2nc(N2CCNCC2)n3Cc2ccc(F)c(Cl)c2)cc1 [Example 168, 6-chloro-1-(3-chloro-4-fluorobenzyl)-4-(1-(4-methoxyphenyl)-1H-pyrazol-5-yl)-2-(piperazin-1-yl)-1H-benzo[d]imidazole trifluoroacetate] | 500 to 1000 | 1000 to 5000
CC(C)c1ccc(-n2nccc2-c2cc(Cl)cc3c2nc(N2CCNCC2)n3Cc2ccc(F)c(Cl)c2)cc1 [Example 169, 6-chloro-1-(3-chloro-4-fluorobenzyl)-4-(1-(4-isopropylphenyl)-1H-pyrazol-5-yl)-2-(piperazin-1-yl)-1H-benzo[d]imidazole trifluoroacetate] | > 5000 | 1000 to 5000
Cc1cc2c(nc(N3CCNCC3)n2Cc2ccc(F)c(Cl)c2)c(-c2ccnn2-c2ccccc2)c1C [Example 171, 1-(3-chloro-4-fluorobenzyl)-5,6-dimethyl-4-(1-phenyl-1H-pyrazol-5-yl)-2-(piperazin-1-yl)-1H-benzo[d]imidazole trifluoroacetate] | 1000 to 5000 | 1000 to 5000
Cc1cc2c(nc(N3CCNCC3)n2Cc2ccc(F)c(Cl)c2)c(-c2ccnn2-c2ccc(Br)cc2)c1C [Example 172, 4-(1-(4-bromophenyl)-1H-pyrazol-5-yl)-1-(3-chloro-4-fluorobenzyl)-5,6-dimethyl-2-(piperazin-1-yl)-1H-benzo[d]imidazole trifluoroacetate] | 1000 to 5000 | 1000 to 5000
Cc1cc2c(nc(N3CCNCC3)n2Cc2ccc(F)c(Cl)c2)c(-c2ccnn2-c2ccc(C(C)C)cc2)c1C [Example 173, 1-(3-chloro-4-fluorobenzyl)-4-(1-(4-isopropylphenyl)-1H-pyrazol-5-yl)-5,6-dimethyl-2-(piperazin-1-yl)-1H-benzo[d]imidazole trifluoroacetate] | > 5000 | 5000 to 30000
CC(C)Cn1nccc1-c1cc(Cl)cc2c1nc(N1CCNCC1)n2Cc1ccc(F)c(Cl)c1 [Example 174, 6-chloro-1-(3-chloro-4-fluorobenzyl)-4-(1-isobutyl-1H-pyrazol-5-yl)-2-(piperazin-1-yl)-1H-benzo[d]imidazole trifluoroacetate] | < 500 | 1000 to 5000
CN(C)CCn1nccc1-c1cc(Cl)cc2c1nc(N1CCNCC1)n2Cc1ccc(F)c(Cl)c1 [Example 175, 2-(5-(6-chloro-1-(3-chloro-4-fluorobenzyl)-2-(piperazin-1-yl)-1H-benzo[d]imidazol-4-yl)-1H-pyrazol-1-yl)-N,N-dimethylethan-1-amine trifluoroacetate] | 500 to 1000 | < 1000
CC(C)n1nccc1-c1cc(Cl)cc2c1nc(N1CCNCC1)n2Cc1ccc(F)c(Cl)c1 [Example 176, 6-chloro-1-(3-chloro-4-fluorobenzyl)-4-(1-isopropyl-1H-pyrazol-5-yl)-2-(piperazin-1-yl)-1H-benzo[d]imidazole trifluoroacetate] | < 500 | 1000 to 5000
Cc1cc(Cn2c(N3CCNCC3)nc3c(-c4ccnn4-c4cccc5ccccc45)cc(Cl)cc32)cc(C)c1F [Example 177, 6-chloro-1-(4-fluoro-3,5-dimethylbenzyl)-4-(1-(naphthalen-1-yl)-1H-pyrazol-5-yl)-2-(piperazin-1-yl)-1H-benzo[d]imidazole trifluoroacetate] | 1000 to 5000 | 30000 to 100000
Cc1cc(Cn2c(N3CCNCC3)nc3c(-c4ccnn4-c4ccc(C(C)(C)C)cc4)cc(Cl)cc32)cc(C)c1F [Example 178, 4-(1-(4-(tert-butyl)phenyl)-1H-pyrazol-5-yl)-6-chloro-1-(4-fluoro-3,5-dimethylbenzyl)-2-(piperazin-1-yl)-1H-benzo[d]imidazole trifluoroacetate] | > 5000 | 5000 to 30000
COC(=O)c1cnn(CCN(C)C)c1-c1cc(C)cc2c1nc(N1CCNCC1)n2Cc1ccc(F)c(Cl)c1 [Example 180, methyl 5-(1-(3-chloro-4-fluorobenzyl)-6-methyl-2-(piperazin-1-yl)-1H-benzo[d]imidazol-4-yl)-1-(2-(dimethylamino)ethyl)-1H-pyrazole-4-carboxylate] | 1000 to 5000 | < 1000
Cc1cc(Cn2c(N3CCNCC3)nc3c(-c4ccccc4C#Cc4ccccc4)cc(Cl)cc32)cc(C)c1F [Example 182, 6-chloro-1-(4-fluoro-3,5-dimethylbenzyl)-4-(2-(phenylethynyl)phenyl)-2-(piperazin-1-yl)-1H-benzo[d]imidazole trifluoroacetate] | > 5000 | 1000 to 5000
Cc1cc(Cn2c(N3CCNCC3)nc3c(-c4ccccc4C#Cc4ccccc4Cl)cc(Cl)cc32)cc(C)c1F [Example 183, 6-chloro-4-(2-((2-chlorophenyl)ethynyl)phenyl)-1-(4-fluoro-3,5-dimethylbenzyl)-2-(piperazin-1-yl)-1H-benzo[d]imidazole trifluoroacetate] | 500 to 1000 | 1000 to 5000
